Data published in patent US20170009266A1, “PROCESS FOR THE ATTACHMENT OF A GALNAC MOIETY COMPRISING A (HETERO)ARYL GROUP TO A GLCNAC MOIETY, AND PRODUCT OBTAINED THEREBY” (SYNAFFIX B.V., priority 2014, published 2017).
Positions count from the first letter of the chain named.

Experiments:
[1] = biological target: T1, Gal-T1(Y289M) (Bos taurus, UniProt P08037, I205M/L206V/P187L/V158I/Y289M); assay: Glycosyltransfer to trimmed trastuzumab with Gal-T1(Y289M) expressed in CHO; type: biochemical, bovine; conditions: trimmed trastuzumab 10 mg/mL; UDP derivative 5 mM; enzyme 0.5 mg/mL; pH 8.0, 30° C. overnight
T1 construct: host or cells: CHO K1
T1 sequence (P08037 74-402 V158I/P187L/I205M/L206V/Y289M): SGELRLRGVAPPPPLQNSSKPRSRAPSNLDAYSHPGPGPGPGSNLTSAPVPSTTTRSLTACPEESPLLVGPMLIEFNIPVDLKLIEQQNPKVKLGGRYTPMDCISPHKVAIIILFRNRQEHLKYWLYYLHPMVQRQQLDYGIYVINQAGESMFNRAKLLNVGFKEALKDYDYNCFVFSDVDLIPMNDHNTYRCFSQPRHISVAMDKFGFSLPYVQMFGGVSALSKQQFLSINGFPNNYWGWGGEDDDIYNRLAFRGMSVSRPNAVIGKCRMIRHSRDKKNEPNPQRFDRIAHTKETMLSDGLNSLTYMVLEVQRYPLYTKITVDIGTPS
Source text: (§1) A set of Gal-T 1 mutants encoding residues 74-402 of bovine Gal-T 1 were transiently expressed in CHO K1 cells by Evitria (Zurich, Switzerland) which include the Gal-T1 single mutants Y289L (represented by SEQ ID NO: 26), Y289F (represented by SEQ ID NO: 27), Y289M (represented by SEQ ID NO: 28), Y289V (represented by SEQ ID NO: 29), Y289A (represented by SEQ ID NO: 30), and Y289G (represented by SEQ ID NO: 31), and the Gal-T1 double mutants Y289L,C342T (represented by SEQ ID NO: 32), and Y289M,C342T (represented by SEQ ID NO: 33). The mutants were purified using a cation exchange column (Source 15S HR16/10 column, GE Healthcare) as described above. Purified proteins were analyzed by SDS-PAGE.
(§2) Trimmed trastuzumab (10 mg/mL, […] obtained by Endo S treatment of trastuzumab, was incubated with the 4-azido-3,5-difluorobenzoyl derivative of UDP-galactosamine (23, 5 mM) and one of the Gal-T1 single mutants Y289L, Y289M, Y289A or Y289G (expressed in CHO as described above) (0.5 mg/mL) in 10 mM MnCl2 and 25 mM Tris-HCl pH 8.0 at 30° C. overnight. Mass spectral analysis of the reduced sample indicated a partial conversion of the core GlcNac(Fuc)-substituted trastuzumab heavy chain (49504 Da) into product 30 (49818 to 49825 Da, 20 to 50% of total heavy chain depending on the Gal-T1 mutant used), resulting from transfer of 23 to core GlcNAc(Fuc)-substituted trastuzumab heavy chain. […]

[2] = biological target: T2, Gal-T1(Y289G) (Bos taurus, UniProt P08037, I205M/L206V/P187L/V158I/Y289G); assay: Glycosyltransfer to trimmed trastuzumab with Gal-T1(Y289G) expressed in CHO; type: biochemical, bovine; conditions: trimmed trastuzumab 10 mg/mL; UDP derivative 5 mM; enzyme 0.5 mg/mL; pH 8.0, 30° C. overnight
T2 construct: host or cells: CHO K1
T2 sequence (P08037 74-402 V158I/P187L/I205M/L206V/Y289G): T1 sequence (P08037 74-402 V158I/P187L/I205M/L206V/Y289M) with M216G
Source text: as §1, §2

## [N-]=[N+]=Nc1c(F)cc(C(=O)N[C@H]2[C@@H](OP(=O)(O)OP(=O)(O)OC[C@H]3O[C@@H](n4ccc(=O)[nH]c4=O)[C@H](O)[C@@H]3O)O[C@H](CO)[C@H](O)[C@@H]2O)cc1F [Compound 23, 4-azido-3,5-difluorobenzoyl Derivative of UDP-GalNH2]
[1]
  observed conversion: approximately 50%
[2]
  observed conversion: approximately 20%
